In one experiment the test system is human monocytes. The experiment can be described thus: Flow cytometric analysis of Dectin-2 expression after GM-CSF culture. Format: cell-based. The following applies: 24 hr, GM-CSF 50 ng/mL. As for the experimental part: (§1) FIG. 4A-4D. GM-CSF induces Dectin-2 expression and sensitizes tumors to Dectin-2 stimuli. (FIG. 4A-4C) Murine (FIG. 4A, FIG. 4B) and human (FIG. 4C) monocytes were cultured for 24 hr in media supplemented or not with GM-CSF (50 ng/mL) prior to flow cytometric analysis of Dectin-2 expression (FIG. 4A, FIG. 4C) or stimulation with furfurman and analysis of TNFα production (FIG. 4B). […] (FIG. 4D) Mice bearing s.c. CT26 tumors were treated with mannan (i.v.) and/or GM-CSF (i.t.) starting on day 6 post-tumor implantation.
(§2) (FIG. 4A-4C) Murine (FIG. 4A, FIG. 4B) and human (FIG. 4C) monocytes were cultured for 24 hr in media supplemented or not with GM-CSF (50 ng/mL) prior to flow cytometric analysis of Dectin-2 expression (FIG. 4A, FIG. 4C) or stimulation with furfurman and analysis of GM-CSF production. […] (FIG. 4D) Mice bearing s.c. CT26 tumors were treated with mannan (i.v.) and/or GM-CSF (i.t.) starting on day 6 post-tumor implantation.
(In general: Flow cytometry measures light scatter and fluorescence of single cells or particles in a stream.)

The test system of the next experiment is murine monocytes. The experiment is described as above. Format: cell-based. The following applies: 24 hr, GM-CSF 50 ng/mL. As to the method: as §1, §2
In the next experiment the test system is s.c. CT26 tumors. The experiment can be described thus: Mannan (i.v.) and/or GM-CSF (i.t.) in s.c. CT26 tumors. To be noted: GM-CSF i.t. with mannan i.v. Format: in vivo, mice. As for the experimental part: as §1, §2
The subject of another experiment is PDAC cells. The experiment can be described thus: High-mannose glycan display on kifunensine-treated tumor cells (concavalin A staining). Format: cell-based. The following applies: tumor cells treated with kifunensine for 3 days. As for the experimental part: (§3) FIG. 5A-5D. Mannosidase inhibition with kifunensine induces high-mannose glycan display and increases tumor cell immunogenicity. (FIG. 5A-5C) PDAC cells were treated with kifunensine for 3 days prior to flow cytometric analysis (FIG. 5A) or coculture with TAM (FIG. 5B, FIG. 5C). (FIG. 5A) PDAC cells stained with the mannose-binding lectin, concavalin A. (FIG. 5B, FIG. 5C) Pretreated PDAC cells were labeled with CSFE and cocultured overnight with TAM to assess cytokine production (FIG. 5B) and tumor cell uptake (FIG. 5C) by Dectin-2-expressing TAM. In some experiments, TAM were treated with Dectin-2-blocking antibodies prior to coculture with PDAC cells (FIG. 5C). *, p<0.05 by Student's t-test. (FIG. 5D) Subcutaneous PDAC tumors from kifunensine-treated mice (i.p., q2d for 7 days) were analyzed by flow cytometry. CD8 T cells (CD8^+CD90^+) among total tumor-infiltrating immune cells are gated.

The subject of experiment [1] is tumor-associated myeloid cells (TAM cells). Nature of the experiment: Coculture of kifunensine-pretreated PDAC cells with TAM (cytokine production, tumor cell uptake). Type of experiment: cell-based. To be noted: kifunensine-pretreated PDAC cells cocultured overnight with TAM; Dectin-2-dependent. As to the method: as §3
The next experiment deals with subcutaneous PDAC tumors. The experiment can be described thus: Kifunensine treatment of mice with subcutaneous PDAC tumors. Format: in vivo. The following applies: kifunensine i.p., q2d for 7 days. As for the experimental part:
as §3

This is an account of results in patent US20190010236A1, “METHODS AND COMPOSITIONS FOR DECTIN-2 STIMULATION AND CANCER IMMUNOTHERAPY” (The Board of Trustees of the Leland Stanford Junior …, priority 2015, published 2019).

On to “GM-CSF: cytokine that induces Dectin-2 expression by myeloid cells”, for which the Dectin-2 expression entry in the experiment with human monocytes and in the experiment on murine monocytes was “induced Dectin-2 expression” throughout. For the same compound, the “sensitization of tumors to Dectin-2 stimuli (tumor volume)” value in the experiment with s.c. CT26 tumors is listed as “sensitized tumors to Dectin-2 stimuli”.
For `O=C1N[C@@H]2[C@@H](O)[C@@H](O)[C@H](O)[C@@H](CO)N2C1=O` [kifunensine], the “high-mannose glycans on the cell surface” value in the experiment with PDAC cells is reported as “sharp increase”. Moreover, in experiment [1], the “TAM activation by treated tumor cells (cytokine production, tumor cell uptake)” value is “inducing proinflammatory cytokine production and tumor cell uptake”. In the experiment with subcutaneous PDAC tumors, the “T cell infiltration into tumors” value is listed as “led to T cell infiltration into tumors” and the “high-mannose glycan display by tumor cells in vivo” value is on record as “increased high-mannose glycan display by tumor cells”.
